“And” between values parts separate entries of the source, which are not always exact repeats. Identical values can stand only once. Where a SMILES comes first, the peptide text is derived from it. [ ]: non-standard residue; d: D form. NMe(dihydroBmt) = CCCC[C@@H](C)[C@@H](O)[C@H](NC)C(=O)O; NMeL = CN[C@@H](CC(C)C)C(=O)O; NMeV = CN[C@H](C(=O)O)C(C)C; Sar = CNCC(=O)O
Key:
[1] = Retention of analog relative to CsA on a uBondapak phenyl column as a measure of hydrophobicity; type: physicochemical; settings: isocratic 60% acetonitrile, 1 ml/min
cyclophilin = biological target: T1, cyclophilin (Bos taurus, UniProt P62935); experiment: Cyclophilin affinity: enhancement of the intrinsic tryptophan fluorescence of cyclophilin by CsA or analogs; type: binding; settings: 5 ug/ml cyclophilin, pH 7.2; for Cyclophilin affinity 0.25 ug/ml: ligand 0.25 ug/ml; for Cyclophilin affinity 1.0 ug/ml: ligand 1.0 ug/ml
T1 construct: from tissue; host or cells: purified from tissue cytosol

[2] = Isoelectric point of cyclophilin; type: physicochemical
Protocol: The column was harvested at a flow rate of 1 ml/min. and the pH of each fraction was measured prior to titration with 1M potassium dihydrogen phosphate to pH 7.0.

[3] = Stability of CsA binding activity of cyclophilin; type: physicochemical
Excerpt: Similarly, it can be used to purify the ligand from a composition containing ligand. For example, the cyclophilin can be used for purifying CsA or related structures from a yeast fermentation broth in which the CsA is produced. Further, it can be used to select compounds which bind to cyclophilin as a screening test for identifying new immunosuppressant drugs. In these various procedures, it is preferred, although not required, to immobilize the cyclophilin. This can be accomplished by any procedure known in the art. A particularly useful immobilizing matrix is agarose having carboxy terminated C12 spacer arm esterfied to N-hydroxysuccinimide. This matrix is commercially available under the name Affigel-10 (Biorad). The immobilized cyclophilin is prepared by effecting a transamination with the N-hydroxysuccinimide being split off and the cyclophilin replacing it. The binding of the cyclophilin to this matrix can result in a marked stabilization of the bound activity through a three-dimensional stabilization achieved by multiple bonds through the ε-amino groups of lysine.

[4] = CsA binding activity (3H-CsA binding, Sephadex LH-20 columns); settings: for CsA binding specific activity: purified bovine isoforms, weak cation exchange HPLC; for CsA bound per mole of cyclophilin species: stoichiometry, major and minor isoforms
Protocol: A typical procedure for the purification of cyclophilin will next be described. […] After addition of 10 ul ^3 H-CsA (50 ug/ml; 0.05 uCi/ml in 40% ethanol), tubes were agitated gently and 50 ul was applied to 1.8 ml Sephadex LH-20 (hydroxypropylated […]) columns pre-equilibrated with assay buffer. The samples were then washed into the columns with 500 ul of assay buffer followed by an additional 500 ul to elute cyclophilin-CsA complexes. Elution fractions were diluted in 5.6 ml Liquiscint (a fluor-containing liquid to permit β-scintillation counting of ^3 H) and the binding activity quantified as equal to (cpm - background).div.(quench correction×^3 H-CsA specific activity)×(volume of test sample).
The isoforms of bovine cyclophilin were separated by weak cation exchange high pressure liquid chromatography. […] Samples were injected onto a weak cation exchange HPLC column (Synchropak CM300:[…]; pore size 300 Å) pre-equilibrated with 5 mM potassium phosphate, 5 mM 2-ME, pH 7.2. The isoforms were eluted at 1 ml/min with a concave gradient (5 mM potassium phosphate, pH 7.2 to 175 mM NaCl, 5 mM potassium phosphate, pH 7.2) generated with a gradient programmer. Milligram quantities of the bovine cyclophilin isoforms were obtained by automating injection, gradient elution and collection. […] The disassociation constant is about 2×10^-7 M.

T1 sequence (P62935 whole entry): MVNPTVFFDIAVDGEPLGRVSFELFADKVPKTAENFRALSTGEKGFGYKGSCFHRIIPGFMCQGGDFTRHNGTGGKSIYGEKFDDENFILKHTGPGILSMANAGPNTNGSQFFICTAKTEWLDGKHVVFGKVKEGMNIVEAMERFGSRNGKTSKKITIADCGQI

Compound | Retention time of analog relative to CsA [1] | Cyclophilin affinity 0.25 ug/ml (cyclophilin) | Cyclophilin affinity 1.0 ug/ml (cyclophilin) | also measured
C/C=C/C[C@@H](C)[C@@H](O)[C@H]1C(=O)N[C@@H]([C@@H](C)O)C(=O)N(C)CC(=O)N(C)[C@@H](CC(C)C)C(=O)N[C@@H](C(C)C)C(=O)N(C)[C@@H](CC(C)C)C(=O)N[C@@H](C)C(=O)N[C@H](C)C(=O)N(C)[C@@H](CC(C)C)C(=O)N(C)[C@@H](CC(C)C)C(=O)N(C)[C@@H](C(C)C)C(=O)N1C [CsC, cyclosporin C] | 0.70 | 0.31 | 0.69 | 
C/C=C/C[C@@H](C)[C@@H](O)[C@H]1C(=O)N[C@@H](C(C)C)C(=O)N(C)CC(=O)N(C)[C@@H](CC(C)C)C(=O)N[C@@H](C(C)C)C(=O)N(C)[C@@H](CC(C)C)C(=O)N[C@@H](C)C(=O)N[C@H](C)C(=O)N(C)[C@@H](CC(C)C)C(=O)N(C)[C@@H](CC(C)C)C(=O)N(C)[C@@H](C(C)C)C(=O)N1C [CsD] | 1.20 | 0.21 | 0.69 | 
C/C=C/C[C@@H](C)[C@@H](O)[C@H]1C(=O)N[C@@H](CCC)C(=O)N(C)CC(=O)N(C)[C@@H](CC(C)C)C(=O)N[C@@H](C(C)C)C(=O)N(C)[C@@H](CC(C)C)C(=O)N[C@@H](C)C(=O)N[C@H](C)C(=O)N(C)[C@@H](CC(C)C)C(=O)N(C)[C@@H](CC(C)C)C(=O)N(C)[C@@H](C(C)C)C(=O)N1C [CsG] | 1.14 | 0.30 | 0.87 | 
CCCC[C@@H](C)[C@@H](O)[C@H]1C(=O)N[C@@H]([C@@H](C)O)C(=O)N(C)CC(=O)N(C)[C@@H](CC(C)C)C(=O)N[C@@H](C(C)C)C(=O)N(C)[C@@H](CC(C)C)C(=O)N[C@@H](C)C(=O)N[C@H](C)C(=O)N(C)[C@@H](CC(C)C)C(=O)N(C)[C@@H](CC(C)C)C(=O)N(C)[C@@H](C(C)C)C(=O)N1C [Dihydro-CsC] (cyclo(A[dA][NMeL][NMeL][NMeV][NMe(dihydroBmt)]T[Sar][NMeL]V[NMeL])) | 0.79 | 0.33 | 0.70 | 
CCCC[C@@H](C)[C@@H](O)[C@H]1C(=O)N[C@@H](C(C)C)C(=O)N(C)CC(=O)N(C)[C@@H](CC(C)C)C(=O)N[C@@H](C(C)C)C(=O)N(C)[C@@H](CC(C)C)C(=O)N[C@@H](C)C(=O)N[C@H](C)C(=O)N(C)[C@@H](CC(C)C)C(=O)N(C)[C@@H](CC(C)C)C(=O)N(C)[C@@H](C(C)C)C(=O)N1C [Dihydro-CsD] (cyclo(A[dA][NMeL][NMeL][NMeV][NMe(dihydroBmt)]V[Sar][NMeL]V[NMeL])) | 1.28 | 0.19 | 0.72 | 
C/C=C/C[C@@H](C)[C@@H](OC(C)=O)[C@H]1C(=O)N[C@@H](CC)C(=O)N(C)CC(=O)N(C)[C@@H](CC(C)C)C(=O)N[C@@H](C(C)C)C(=O)N(C)[C@@H](CC(C)C)C(=O)N[C@@H](C)C(=O)N[C@H](C)C(=O)N(C)[C@@H](CC(C)C)C(=O)N(C)[C@@H](CC(C)C)C(=O)N(C)[C@@H](C(C)C)C(=O)N1C [O-Acetyl-CsA] | 1.69 | -0.02 | -0.03 | 
Bovine cyclophilin: Bovine thymocyte cyclophilin contains 163 amino acid residues; sequence in FIG. 1 |  |  |  | isoelectric point [2]: about 9.6
Human cyclophilin: N-terminal sequence (72 residues) of bovine and human cyclophilin is completely identical |  |  |  | isoelectric point [2]: 7.4 and 9.1
cyclophilin: homogeneous cytosolic binding protein which has a molecular weight of approximately 17,600 daltons |  |  |  | stability of CsA binding activity ([3]; temperature, pH, proteases, in words): unstable at 56 °C and at pH 4 or 9.5, and sensitive to proteases, i.e. trypsin; irreversible loss of CsA binding activity ([3]; unbound cyclophilin in solution with 8M urea, after dialysis): at least 60%; loss of CsA binding activity in 30% acetonitrile ([3]; unbound cyclophilin, 10 minute exposure to 30% acetonitrile): complete loss of activity; CsA binding specific activity of purified cyclophilin ([4]; purified cyclophilin): above 50 ug per mg of protein
major isoform of cyclophilin: major isoform of bovine cyclophilin separated by weak cation exchange HPLC |  |  |  | CsA binding specific activity [4]: 77 ug per mg of protein; CsA bound per mole of cyclophilin species [4]: about one
minor isoform of cyclophilin: minor isoform of bovine cyclophilin separated by weak cation exchange HPLC |  |  |  | CsA binding specific activity [4]: 67 ug per mg of protein; CsA bound per mole of cyclophilin species [4]: about one
